Measured values as given in US4130645A (priority 1978, dated 1978).
Several values for one entry are separate records, joined by “and”; a condition that tells them apart may be missing. Identical values can stand only once. Counter-ions that a name gives are not always drawn.

Assays:
[1] = tested on: Podosphaera leucotricha (E&E) Salm.; test: whole plant or invertebrate; assay type: in vivo; conditions: for activity against apple powdery mildew: in vivo; for pest or weed control at 500 ppm: Podosphaera leucotricha, foliar, read-out: Apple Powdery Mildew Percent Disease Control
[2] = tested on: Pyricularia oryzae Carvara; conditions: in vivo
[3] = tested on: Venturia inaequalis (Cke.) Wint.; test: whole plant or invertebrate; assay type: in vivo; conditions: for pest or weed control at 200 ppm / pest or weed control at 500 ppm: Venturia inaequalis, foliar, read-out: Apple Scab Percent Disease Control; for activity against apple scab: in vivo
[4] = tested on: Puccinia recondita var. tritici; test: Protectant control of leaf rust of wheat; assay type: in vivo
Description: (§1) Individual pots of approximately 20 to 25 wheat (Triticum vulgare, cv. Cheyenne) plants each, grown under greenhouse conditions, approximately 7 to 8 days old and 10.2 to 12.7 cm. tall are used as test plants, a minimum of three such pots per unit of test.
(§2) The required amount of test compound is dissolved in 10 ml. of a stock solution consisting of 1995 ml. acetone, 4 ml. sorbitan trioleate and 1 ml. polyoxyethylene (20) sorbitan monooleate and diluted to a volume of 100 ml. by addition of 90 ml. deionized water.
(§3) Test plants, three pots per unit of test, are mounted on a compound turntable and sprayed to incipient run-off with the test solution applied at 2.81 kg/cm^2 pressure for 60 seconds using a solid conte T-Jet 8801E spray nozzle. By this spray procedure the delivery rate is equivalent to approximately 467.7 l/ha.
(§4) Treated plants are allowed to air dry for 5 to 6 hours and then inoculated by uniformly dusting with urediospores of leaf rust of wheat (Puccinia recondita var. tritici) at a rate of approximately 2 × 10^5 urediospores per replicate, using urediospores directly from diseased plants. Inoculated plants are immediately placed in an incubation chamber maintained at 21° C. and 95% + RH. After 24 hours plants are removed to the greenhouse and maintained under greenhouse conditions of 21° to 29.4° C. and 50 to 75% RH for 5 to 8 days until signs of orange pustules visible to the naked eye appear on the inoculated but otherwise untreated controls.
Effectiveness of the compound, as applied, is expressed as Percent Control calculated as: [formula]
Average number of pustules on plants of any given test unit is determined by randomly dividing all plants in each of the three replicates (one pot per replicate) into quadrants, counting the actual number of pustules on all plants within a quadrant in each of the three replicates, multiplying by four and averaging the total number of pustules thus obtained as the average number of pustules per replicate.

[5] = Thermal decomposition point (Differential Thermal Analyzer); assay type: physicochemical; conditions: 20° C./min, onset method
Description: By the procedure of Examples 2 and 5 the following novel salts of 2,3,5,6-tetrachloro-N-nitroaniline are prepared as listed in Table II below. The melting points (uncorrected) of said salts are determined on a Thomas Hoover Capillary Melting Point Apparatus; while the thermal decomposition points of said salts are determined on a Dupont 900 Differential Thermal Analyzer. […] Decompositions are recorded by an exothermic response and the temperatures given in Table II below are assessed by the "onset method".

wheat = test: Plant injury to wheat in leaf rust test; assay type: in vivo, Triticum vulgare, cv. Cheyenne
Description: as §1, §2, §3, §4

rice = conditions: 1000 ppm

Cc1cc([N+](=O)[O-])cc(C)c1N[N+](=O)[O-] [2,6-dimethyl-4-nitro-]
activity against apple powdery mildew [1]: active

O=[N+]([O-])Nc1c(Cl)c(Cl)cc(Cl)c1Cl [drawing 60]
Rice Blast Percent Disease Control [2]: 83%

O=[N+]([O-])Nc1c(Cl)c(Cl)cc(Cl)c1Cl [drawing 61]
Rice Blast Percent Disease Control [2]: 83%

COC(=O)CN(c1c(Cl)c(Cl)cc(Cl)c1Cl)[N+](=O)[O-] [drawing 73]
pest or weed control at 200 ppm [3]: 83% | pest or weed control at 500 ppm [3]: 96%

CC(C)N(c1c(Cl)c(Cl)cc(Cl)c1Cl)[N+](=O)[O-] [--(CH(CH3)2]
activity against apple scab [3]: active

O=[N+]([O-])Nc1c(Cl)c(Cl)cc(Cl)c1Cl [2,3,5,6-Tetrachloro-N-nitroaniline, 2,3,5,6-tetrachloro-N-nitroaniline]
% Control (Ave) ([4]; 50 ppm): 35% | No. of Infection Loci/Replicate ([4]; 50 ppm, Rep. 1): 186 | No. of Infection Loci/Replicate ([4]; 50 ppm, Rep. 2): 173 | No. of Infection Loci/Replicate ([4]; 50 ppm, Rep. 3): 199 | % Control (Ave) ([4]; 100 ppm): 58% | No. of Infection Loci/Replicate ([4]; 100 ppm, Rep. 1): 124 | No. of Infection Loci/Replicate ([4]; 100 ppm, Rep. 2): 119 | No. of Infection Loci/Replicate ([4]; 100 ppm, Rep. 3): 116 | % Control (Ave) ([4]; 200 ppm): 69% | No. of Infection Loci/Replicate ([4]; 200 ppm, Rep. 1): 81 | No. of Infection Loci/Replicate ([4]; 200 ppm, Rep. 2): 96 | No. of Infection Loci/Replicate ([4]; 200 ppm, Rep. 3): 86 | Thermal Decomposition Point ([5]; listed as Parent Compound): 150 °C | Plant Injury (Ave) (wheat; 50 ppm): 0 | Plant Injury (Ave) (wheat; 100 ppm): 0 | Plant Injury (Ave) (wheat; 200 ppm): 0

O=[N+]([O-])Nc1cccc(Cl)c1Cl [2,3-dichlorophenylnitramine]
activity against apple scab [3]: active | activity against apple powdery mildew [1]: active

O=[N+]([O-])Nc1c(Cl)c(Cl)cc(Cl)c1Cl [drawing 69]
pest or weed control at 500 ppm [3]: 76%

O=[N+]([O-])Nc1c(Br)cc(C(F)(F)F)cc1Br [2,6-dibromo-4-trifluoromethylphenylnitramine]
activity against apple scab [3]: active | activity against apple powdery mildew [1]: active

CC(=O)Nc1cc(Cl)c(N[N+](=O)[O-])c(Cl)c1 [drawing 68]
pest or weed control at 500 ppm [3]: 76%

O=[N+]([O-])Nc1c(Cl)c(Cl)cc(Cl)c1Cl [NH2 (CH2 CH2 OH)2]
Thermal Decomposition Point [5]: 173 °C and 177 °C

O=[N+]([O-])Nc1c(Cl)c(Cl)cc(Cl)c1Cl [NH2 (CH2C6 H5)2, dibenzylamine salt of 2,3,5,6-tetrachloro-N-nitroaniline]
Thermal Decomposition Point [5]: 183 °C

O=[N+]([O-])Nc1ccc(Cl)c(C(F)(F)F)c1 [4-chloro-3-trifluoromethyl-]
activity against apple powdery mildew [1]: active

O=[N+]([O-])Nc1c(Br)cc(C(F)(F)F)cc1Br [drawing 79]
pest or weed control at 500 ppm [1]: 84%

O=[N+]([O-])Nc1ccccc1Cl
pest or weed control at 500 ppm [3]: 93%

CC(=O)Nc1cc(Cl)c(N[N+](=O)[O-])c(Cl)c1 [2,6-dichloro-4-acetamidophenylnitramine]
activity against apple scab [3]: active

O=[N+]([O-])Nc1c(Cl)cccc1Cl [2,6-dichloro-]
activity against apple powdery mildew [1]: active

O=[N+]([O-])Nc1c(Cl)c(Cl)cc(Cl)c1Cl [NH2 (C4 H9)2]
Thermal Decomposition Point [5]: 207 °C

Cc1cccc(N[N+](=O)[O-])c1C [drawing 55]
Rice Blast Percent Disease Control [2]: 81%

O=[N+]([O-])Nc1c(Cl)c(Cl)cc(Cl)c1Cl [NHC18 H37 . (CH2 CH2 O)2 H . (CH2 CH2 O)3 H]
Thermal Decomposition Point [5]: 153-157 °C

O=[N+]([O-])Nc1c(Cl)c(Cl)cc(Cl)c1Cl [drawing 22]
Thermal Decomposition Point [5]: 143 °C

O=[N+]([O-])Nc1c(Cl)c(Cl)cc(Cl)c1Cl [NH3 C8 H17]
Thermal Decomposition Point [5]: 163 °C

Cc1cccc(N[N+](=O)[O-])c1C [2,3-dimethylphenylnitramine]
activity against the rice blast pathogen [2]: considerable activity

O=[N+]([O-])Nc1ccc(Cl)cc1Cl [2,4-dichlorophenylnitramine]
activity against apple scab [3]: active

O=[N+]([O-])Nc1c(Cl)c(Cl)cc(Cl)c1Cl [NH3 (CH2)8 CHCH(CH2)7 CH3]
Thermal Decomposition Point [5]: 157 °C

CS(=O)(=O)c1ccc(N[N+](=O)[O-])cc1 [4-methylsulfonylphenylnitramine]
activity against apple scab [3]: active

CC(=O)N(c1c(Cl)c(Cl)cc(Cl)c1Cl)[N+](=O)[O-] [drawing 83]
pest or weed control at 500 ppm [1]: 92%

O=[N+]([O-])Nc1c(Br)cc(C(F)(F)F)cc1Br [drawing 67]
pest or weed control at 500 ppm [3]: 76%

O=[N+]([O-])Nc1cccc(Br)c1 [drawing 77]
pest or weed control at 500 ppm [1]: 84%

O=[N+]([O-])Nc1c(Cl)cccc1Cl [drawing 75]
pest or weed control at 500 ppm [1]: 84%

O=[N+]([O-])Nc1c(Cl)c(Cl)cc(Cl)c1Cl [drawing 59]
phytotoxicity (rice): M/Sv | Rice Blast Percent Disease Control [2]: 83%

O=[N+]([O-])Nc1ccc(C(F)(F)F)cc1 [4-trifluoromethylphenylnitramine]
activity against the rice blast pathogen [2]: considerable activity

O=[N+]([O-])Nc1c(Cl)c(Cl)cc(Cl)c1Cl [NH3 CH2 CH2 NH2]
Thermal Decomposition Point [5]: 208 °C

CS(=O)(=O)c1ccc(N[N+](=O)[O-])cc1 [drawing 66]
pest or weed control at 500 ppm [3]: 76%

O=[N+]([O-])Nc1c(Cl)c(Cl)cc(Cl)c1Cl [drawing 24]
Thermal Decomposition Point [5]: 138 °C

O=[N+]([O-])Nc1ccc(Cl)c(C(F)(F)F)c1 [drawing 80]
pest or weed control at 500 ppm [1]: 84%

O=[N+]([O-])Nc1c(Cl)c(Cl)cc(Cl)c1Cl [NH2 (C3 H7)2]
Thermal Decomposition Point [5]: 204 °C

O=[N+]([O-])Nc1c(Cl)c(Cl)cc(Cl)c1Cl [drawing 58]
phytotoxicity (rice): M/Sv | Rice Blast Percent Disease Control [2]: 83%

O=[N+]([O-])Nc1cccc(Cl)c1Cl [drawing 64]
pest or weed control at 200 ppm [3]: 67% | pest or weed control at 500 ppm [3]: 76%

CC(=O)N(c1c(Cl)c(Cl)cc(Cl)c1Cl)[N+](=O)[O-] [N-acetyl derivative of 2,3,5,6-tetrachlorophenylnitramine]
activity against apple powdery mildew [1]: active | activity against the rice blast pathogen [2]: considerable activity

O=[N+]([O-])Nc1c(Cl)c(Cl)cc(Cl)c1Cl [drawing 25]
Thermal Decomposition Point [5]: 173 °C

O=[N+]([O-])Nc1c(Cl)c(Cl)cc(Cl)c1Cl [NH(CH2 CH2 OH)3]
Thermal Decomposition Point [5]: 150 °C

O=[N+]([O-])Nc1cccc(Br)c1 [3-bromophenylnitramine]
activity against apple powdery mildew [1]: active

O=[N+]([O-])Nc1c(Cl)c(Cl)cc(Cl)c1Cl [drawing 26]
Thermal Decomposition Point [5]: 203 °C

O=[N+]([O-])Nc1c(Cl)c(Cl)cc(Cl)c1Cl [NH3 CH2 CH2 OH, ethanolamine salt of 2,3,5,6-tetrachloro-N-nitroaniline]
Thermal Decomposition Point [5]: 203 °C

O=[N+]([O-])Nc1c(Cl)c(Cl)cc(Cl)c1Cl [drawing 62]
Rice Blast Percent Disease Control [2]: 69%

Cc1cc([N+](=O)[O-])cc(C)c1N[N+](=O)[O-] [drawing 78]
pest or weed control at 500 ppm [1]: 84%

Cc1c(Cl)cccc1N[N+](=O)[O-]
pest or weed control at 500 ppm [1]: 84%

COC(=O)CN(c1c(Cl)c(Cl)cc(Cl)c1Cl)[N+](=O)[O-] [--CH2 COOCH3]
activity against apple scab [3]: active

O=[N+]([O-])Nc1cccc(Cl)c1C(F)(F)F [3-chloro-2-trifluoromethyl-]
activity against apple powdery mildew [1]: active

O=[N+]([O-])Nc1c(Cl)c(Cl)cc(Cl)c1Cl [NH4]
Thermal Decomposition Point [5]: 178 °C

O=[N+]([O-])Nc1cccc(Cl)c1Cl [drawing 74]
pest or weed control at 500 ppm [1]: 96%

O=[N+]([O-])Nc1c(Cl)c(Cl)cc(Cl)c1Cl [drawing 21]
Thermal Decomposition Point [5]: 176 °C

CC(=O)N(c1c(Cl)c(Cl)cc(Cl)c1Cl)[N+](=O)[O-] [drawing 57]
Rice Blast Percent Disease Control [2]: 100%

O=[N+]([O-])Nc1c(Cl)c(Cl)cc(Cl)c1Cl [NH3 CH3]
Thermal Decomposition Point [5]: 183 °C

O=[N+]([O-])Nc1c(Cl)c(Cl)cc(Cl)c1Cl [2,3,5,6-tetrachlorophenylnitramine N-barium salt]
activity against apple scab [3]: active

O=[N+]([O-])Nc1c(Cl)c(Cl)cc(Cl)c1Cl [NH2 (C18 H37)2]
Thermal Decomposition Point [5]: 168 °C
